# Results reported in paper PMC8245078, “Development of novel benzofuran-isatin conjugates as potential antiproliferative agents with apoptosis inducing mechanism in Colon cancer” (Journal of Enzyme Inhibition and Medicinal Chemistry, 2021).
# Experiments:
# Assay type in all cases: cell-based
# EKVX = conditions: five-dose test
# SW-620 = conditions: SW-620, five-dose test
# UACC-62 = conditions: UACC-62, five-dose test
# BT-549 = conditions: BT-549, five-dose test
# [1] = Homo sapiens, read-out: LC50 (the source's name)
smiles,measurement,setting,value
COc1ccc2c(c1)/C(=N/NC(=O)c1oc3ccccc3c1C)C(=O)N2 [Compound 5d],GI50,EKVX; Homo sapiens,2.94 µM
same,LC50 (concentration giving 50% net cell kill),EKVX; Homo sapiens,> 100 µM
same,TGI,EKVX,>100 µM
same,CC50,SW-620; [1],> 100 µM
same,TGI,SW-620,>100 µM
same,GI50,UACC-62; Homo sapiens,5.19 µM
same,CC50,UACC-62; [1],> 100 µM
same,TGI,UACC-62,>100 µM
same,TGI,BT-549,33.7 µM
same,GI50,BT-549; Homo sapiens,5.38 µM
same,LC50 (concentration causing 50% net cell kill),BT-549; Homo sapiens,> 100 µM
